Laboratory results from US20240294534A1, “IMIDAZOTRIAZINE DERIVATIVES AS IL-17 MODULATORS” (UCB BIOPHARMA SRL, priority 2021, published 2024).

Molecular target: T1, IL-17A (Homo sapiens, UniProt Q16552)
T1 sequence (Q16552 24-155): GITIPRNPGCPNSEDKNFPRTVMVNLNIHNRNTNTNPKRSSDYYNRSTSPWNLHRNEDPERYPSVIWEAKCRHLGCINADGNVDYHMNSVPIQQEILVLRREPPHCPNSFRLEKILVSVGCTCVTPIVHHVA
Experiment: Inhibition of IL-17A induced IL-6 release from dermal fibroblast cell line (HDF cell line assay)
Assay type: cell-based
Conditions: human dermal fibroblasts stimulated with IL-17A (50 pM) + TNF-α (25 pM); IL-6 measured by HTRF; pIC50 = -log10[IC50], IC50 molar
Text: Inhibition of IL-17A Induced IL-6 Release from Dermal Fibroblast Cell Line
The purpose of this assay is to test the neutralising ability to IL-17 proteins, in a human primary cell system. Stimulation of normal human dermal fibroblasts (HDF) with IL-17 alone produces only a very weak signal but in combination with certain other cytokines, such as TNFα, a synergistic effect can be seen in the production of inflammatory cytokines, i.e. IL-6.
HDFs were stimulated with IL-17A (50 pM) in combination with TNF-α (25 pM). The resultant IL-6 response was then measured using a homogenous time-resolved FRET kit from Cisbio. The kit utilises two monoclonal antibodies, one labelled with Eu-Cryptate (Donor) and the second with d2 or XL665 (Acceptor). The intensity of the signal is proportional to the concentration of IL-6 present in the sample (Ratio is calculated by 665/620×104).
The ability of a compound to inhibit IL-17 induced IL-6 release from human dermal fibroblasts is measured in this assay.
HDF cells (Sigma #106-05n) were cultured in complete media (DMEM+10% FCS+2 mM L-glutamine) and maintained in a tissue culture flask using standard techniques. Cells were harvested from the tissue culture flask on the morning of the assay using TrypLE (Invitrogen #12605036). The TrypLE was neutralised using complete medium (45 mL) and the cells were centrifuged at 300×g for 3 minutes. The cells were re-suspended in complete media (5 mL) counted and adjusted to a concentration of 3.125×10^4 cells/mL before being added to the 384 well assay plate (Corning #3701) at 40 μL per well. The cells were left for a minimum of three hours, at 37° C./5% CO2, to adhere to the plate.
Compounds were serially diluted in DMSO before receiving an aqueous dilution into a 384 well dilution plate (Greiner #781281), where 5 μL from the titration plate was transferred to 45 μL of complete media and mixed to give a solution containing 10% DMSO.
Mixtures of TNFα and IL-17 cytokine were prepared in complete media to final concentrations of TNFα 25 pM/IL-17A 50 pM, then 30 μL of the solution was added to a 384 well reagent plate (Greiner #781281).
10 μL from the aqueous dilution plate was transferred to the reagent plate containing 30 μL of the diluted cytokines, to give a 2.5% DMSO solution. The compounds were incubated with the cytokine mixtures for 5 h at 37° C. After the incubation, 10 μL was transferred to the assay plate, to give a 0.5% DMSO solution, then incubated for 18-20 h at 37° C./5% CO2.
From the Cisbio IL-6 FRET kit (Cisbio #62IL6PEB) europium cryptate and Alexa 665 were diluted in reconstitution buffer and mixed 1:1, as per kit insert. To a white low volume 384 well plate (Greiner #784075) were added FRET reagents (10 μL), then supernatant (10 μL) was transferred from the assay plate to Greiner reagent plate. The mixture was incubated at room temperature for 3 h with gentle shaking (<400 rpm) before being read on a Synergy Neo 2 plate reader (Excitation: 330 nm; Emission: […]).

SMILES	IC50
Cc1nonc1C(=O)N[C@H](c1cn2ncc([C@@H]3C[C@@](C)(O)CCN3C(=O)C34CC(F)(C3)C4)nc2n1)C1CCC(F)(F)CC1 (single isomer, unassigned) [Example 40]	79.4 nM
Cc1nonc1C(=O)N[C@H](c1cn2ncc([C@H]3C[C@](C)(O)CCN3C(=O)C34CC(F)(C3)C4)nc2n1)C1CCC(F)(F)CC1 (single isomer, unassigned) [Example 41]	794 nM
Cc1nonc1C(=O)N[C@H](c1cn2ncc([C@H]3C[C@@H](O)CCN3C(=O)[C@@H]3CCC(F)(F)CO3)nc2n1)C1CCC(F)(F)CC1 (single isomer, unassigned) [Example 43]	25.1 nM
Cc1nonc1C(=O)N[C@H](c1cn2ncc([C@@H]3C[C@@H](O)CCN3C(=O)[C@@H]3CCC(F)(F)CO3)nc2n1)C1CCC(F)(F)CC1 (single isomer, unassigned) [Example 44]	126 nM
Cn1nccc1C(=O)N[C@H](c1cn2ncc([C@H]3C[C@](O)(C(F)F)CCN3C(=O)[C@@H]3CCC(F)(F)CO3)nc2n1)C1CCC(F)(F)CC1 (single isomer, unassigned) [Example 47]	631 nM
CC(C)n1ncnc1C(=O)N[C@H](c1cn2ncc([C@@H]3C[C@@](O)(C(F)F)CCN3C(=O)[C@@H]3CCC(F)(F)CO3)nc2n1)C1CCC(F)(F)CC1 (single isomer, unassigned) [Example 49]	631 nM
CC(C)n1ncnc1C(=O)N[C@H](c1cn2ncc([C@H]3C[C@@H](O)CCN3C(=O)[C@@H]3CCC(F)(F)CO3)nc2n1)C1CCC(F)(F)CC1 (single isomer, unassigned) [Example 51]	251 nM
CC(C)n1ncnc1C(=O)N[C@H](c1cn2ncc([C@H]3C[C@@](C)(O)CCN3C(=O)[C@@H]3CCC(F)(F)CO3)nc2n1)C1CCC(F)(F)CC1 (single isomer, unassigned) [Example 53]	501 nM
O=C(N[C@H](c1cn2ncc(C3CS(=O)(=O)CCN3C(=O)C34CC(F)(C3)C4)nc2n1)[C@H]1CC[C@H](C(F)(F)F)CC1)OCc1ccccc1 (stereo partly drawn) [Example 13, Benzyl N—[(S)-{3-[4-(3-fluorobicyclo[1.1.1]pentane-1-carbonyl)-1,1-dioxo-1,4-thiazinan-3-yl]imidazo[1,2-b][1,2,4]triazin-6-yl}[4-(trifluoromethyl)cyclohexyl]methyl]carbamate]	50.1 nM
Cc1nonc1C(=O)N[C@H](c1cn2ncc(C3(C(=O)NCC(C)(F)F)CCOCC3)nc2n1)C1CCC(F)(F)CC1 [Example 17, N—[(S)-(4,4-Difluorocyclohexyl){3-[4-(2,2-difluoropropylcarbamoyl)tetrahydropyran-4-yl]imidazo[1,2-b][1,2,4]triazin-6-yl}methyl]-4-methyl-1,2,5-oxadiazole-3-carboxamide]	12.6 nM
Cc1nonc1C(=O)N[C@H](c1cn2ncc(C3(C(=O)N4CC(C(F)(F)F)C4)CCN(C4COC4)CC3)nc2n1)C1CCC(F)(F)CC1 [Example 55, N—[(S)-(4,4-Difluorocyclohexyl)(3-{1-(oxetan-3-yl)-4-[3-(trifluoromethyl)azetidine-1-carbonyl]piperidin-4-yl}imidazo[1,2-b][1,2,4]triazin-6-yl)methyl]-4-methyl-1,2,5-oxadiazole-3-carboxamide]	63.1 nM
Cc1nonc1C(=O)N[C@H](c1cn2ncc(C3(C(=O)NCC(C)(F)F)CCN(C4COC4)CC3)nc2n1)C1CCC(F)(F)CC1 [Example 56, N—[(S)-(4,4-Difluorocyclohexyl){3-[4-(2,2-difluoropropylcarbamoyl)-1-(oxetan-3-yl)-piperidin-4-yl]imidazo[1,2-b][1,2,4]triazin-6-yl}methyl]-4-methyl-1,2,5-oxadiazole-3-carboxamide]	15.8 nM

The next lines start with the values.

IC50	SMILES
12.6 nM	Cc1nonc1C(=O)N[C@H](c1cn2ncc([C@@H]3C[C@H](O)CCN3C(=O)[C@@H]3CCC(F)(F)CO3)nc2n1)C1CCC(F)(F)CC1 (single isomer, unassigned) [Example 42]
3.98 nM	Cc1nonc1C(=O)N[C@H](c1cn2ncc([C@H]3C[C@H](O)CCN3C(=O)[C@@H]3CCC(F)(F)CO3)nc2n1)C1CCC(F)(F)CC1 (single isomer, unassigned) [Example 45]
12.6 nM	Cn1nccc1C(=O)N[C@H](c1cn2ncc([C@@H]3C[C@@](O)(C(F)F)CCN3C(=O)[C@@H]3CCC(F)(F)CO3)nc2n1)C1CCC(F)(F)CC1 (single isomer, unassigned) [Example 46]
6.31 nM	CC(C)n1ncnc1C(=O)N[C@H](c1cn2ncc([C@@H]3C[C@@](O)(C(F)F)CCN3C(=O)[C@@H]3CCC(F)(F)CO3)nc2n1)C1CCC(F)(F)CC1 (single isomer, unassigned) [Example 48]
12.6 nM	CC(C)n1ncnc1C(=O)N[C@H](c1cn2ncc([C@H]3C[C@@H](O)CCN3C(=O)[C@@H]3CCC(F)(F)CO3)nc2n1)C1CCC(F)(F)CC1 (single isomer, unassigned) [Example 50]
7.94 nM	CC(C)n1ncnc1C(=O)N[C@H](c1cn2ncc([C@@H]3C[C@](C)(O)CCN3C(=O)[C@@H]3CCC(F)(F)CO3)nc2n1)C1CCC(F)(F)CC1 (single isomer, unassigned) [Example 52]
12.6 nM	CC(C)n1nccc1C(=O)N[C@H](c1cn2ncc(C3(C(=O)NCC(C)(F)F)CCC(F)(F)CC3)nc2n1)C1CCC(F)(F)CC1 [Example 16, N—[(S)-(4,4-Difluorocyclohexyl){3-[1-(2,2-difluoropropylcarbamoyl)-4,4-difluoro-cyclohexyl]imidazo[1,2-b][1,2,4]triazin-6-yl}methyl]-2-isopropylpyrazole-3-carboxamide]
7.94 nM	Cc1nonc1C(=O)N[C@H](c1cn2ncc(C3(C(=O)N4CC(F)(F)C(F)(F)C4)CCN(C4COC4)CC3)nc2n1)C1CCC(F)(F)CC1 [Example 54, N—[(S)-(4,4-Difluorocyclohexyl){3-[1-(oxetan-3-yl)-4-(3,3,4,4-tetrafluoropyrrolidine-1-carbonyl)piperidin-4-yl]imidazo[1,2-b][1,2,4]triazin-6-yl}methyl]-4-methyl-1,2,5-oxadiazole-3-carboxamide]
